Legend:
bedstraw = experiment: Test B pre/postemergence bedstraw; type: in vivo, Galium aparine
Summary of the method: (§1)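 Herbicidal effect was estimated by eye on a ten-point control scale after plants spent twelve to sixteen days in a greenhouse following soil or foliar treatment. Foliar sprays targeted plants at one to four leaves; all doses were formulated in a non-phytotoxic solvent with surfactant.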

blackgrass = experiment: Test B pre/postemergence blackgrass; type: in vivo, Alopecurus myosuroides
Summary of the method: as §1

surinam grass = experiment: Test B pre/postemergence surinam grass; type: in vivo, Brachiaria decumbens
Summary of the method: as §1

cocklebur = experiment: Test B pre/postemergence cocklebur; type: in vivo, Xanthium strumarium
Summary of the method: as §1

corn = experiment: Test B pre/postemergence corn; type: in vivo, Zea mays
Summary of the method: as §1

crabgrass = experiment: Test B pre/postemergence crabgrass; type: in vivo, Digitaria sanguinalis
Summary of the method: as §1

giant foxtail = experiment: Test B pre/postemergence giant foxtail; type: in vivo, Setaria faberii
Summary of the method: as §1

morningglory = experiment: Test B pre/postemergence morningglory; type: in vivo, Ipomoea hederacea
Summary of the method: as §1

pigweed = experiment: Test B pre/postemergence pigweed; type: in vivo, Amaranthus retroflexus
Summary of the method: as §1

rape = experiment: Test B pre/postemergence rape; type: in vivo, Brassica napus
Summary of the method: as §1

soybean = experiment: Test B pre/postemergence soybean; type: in vivo, Glycine max
Summary of the method: as §1

sugar beet = experiment: Test B pre/postemergence sugar beet; type: in vivo, Beta vulgaris
Summary of the method: as §1

velvetleaf = experiment: Test B pre/postemergence velvetleaf; type: in vivo, Abutilon theophrasti
Summary of the method: as §1

wheat = experiment: Test B pre/postemergence wheat; type: in vivo, Triticum aestivum
Summary of the method: as §1

wild oat = experiment: Test B pre/postemergence wild oat; type: in vivo, Avena fatua
Summary of the method: as §1

purple nutsedge = experiment: Test B pre/postemergence purple nutsedge; type: in vivo, Cyperus rotundus
Summary of the method: as §1

[1] = Postemergence, Rate 62 g/ha, scale 0 to 10, 0 is no effect, 10 is complete control
[2] = Postemergence, Rate 125 g/ha, scale of 0 to 10 where 0 is no effect and 10 is complete control
[3] = Postemergence, Rate 500 g/ha, scale 0 (no effect) to 10 (complete control)
[4] = Preemergence, Rate 250 g/ha, scale 0 (no effect) to 10 (complete control)
[5] = Rate 62 g/ha, Preemergence, scale 0 to 10
[6] = Rate 125 g/ha, Preemergence, scale 0 to 10 (0 no effect, 10 complete control)
[7] = Rate 250 g/ha, Postemergence, scale 0 to 10, 0 is no effect, 10 is complete control
[8] = Rate 500 g/ha, Preemergence, scale 0 to 10 (0 no effect, 10 complete control)

CCOC(CC)n1c(=O)on(C(=O)N(c2ccccc2)C(C)C)c1=O (stereo not drawn) [Compound 773]
0: Plant response rating, Bedstraw (bedstraw; [1]) | Bedstraw plant response rating (bedstraw; [2]) | Bedstraw plant response rating (bedstraw; [3]) | Bedstraw plant response rating (bedstraw; [4]) | Bedstraw plant response rating (bedstraw; [5]) | Bedstraw plant response rating (bedstraw; [6]) | Bedstraw plant response rating (bedstraw; [7]) | Bedstraw plant response rating (bedstraw; [8]) | Plant response rating, Blackgrass (blackgrass; [1]) | Blackgrass plant response rating (blackgrass; [2]) | Blackgrass plant response rating (blackgrass; [3]) | Blackgrass plant response rating (blackgrass; [4]) | Blackgrass plant response rating (blackgrass; [5]) | Blackgrass plant response rating (blackgrass; [6]) | Blackgrass plant response rating (blackgrass; [7]) | Blackgrass plant response rating (blackgrass; [8]) | Plant response rating, B. signalgrass (surinam grass; [1]) | B. signalgrass plant response rating (surinam grass; [2]) | B. signalgrass plant response rating (surinam grass; [4]) | B. signalgrass plant response rating (surinam grass; Rate 62 g/ha, Preemergence, scale 0 (no effect) to 10 (complete control)) | B. signalgrass plant response rating (surinam grass; [6]) | B. signalgrass plant response rating (surinam grass; [7]) | B. signalgrass plant response rating (surinam grass; Rate 500 g/ha, Postemergence, scale 0 to 10, 0 is no effect, 10 is complete control) | B. signalgrass plant response rating (surinam grass; [8]) | Plant response rating, Cocklebur (cocklebur; [1]) | Cocklebur plant response rating (cocklebur; [2]) | Cocklebur plant response rating (cocklebur; [3]) | Cocklebur plant response rating (cocklebur; [4]) | Cocklebur plant response rating (cocklebur; [5]) | Cocklebur plant response rating (cocklebur; [6]) | Cocklebur plant response rating (cocklebur; [7]) | Cocklebur plant response rating (cocklebur; [8]) | Plant response rating, Corn (corn; [1]) | Corn plant response rating (corn; [2]) | Corn plant response rating (corn; [3]) | Corn plant response rating (corn; [4]) | Corn plant response rating (corn; [5]) | Corn plant response rating (corn; [6]) | Corn plant response rating (corn; [7]) | Corn plant response rating (corn; [8]) | Plant response rating, Crabgrass (crabgrass; [1]) | Crabgrass plant response rating (crabgrass; [2]) | Crabgrass plant response rating (crabgrass; [3]) | Crabgrass plant response rating (crabgrass; [4]) | Crabgrass plant response rating (crabgrass; [5]) | Crabgrass plant response rating (crabgrass; [6]) | Crabgrass plant response rating (crabgrass; [7]) | Crabgrass plant response rating (crabgrass; [8]) | Plant response rating, Giant foxtail (giant foxtail; [1]) | Giant foxtail plant response rating (giant foxtail; [2]) | Giant foxtail plant response rating (giant foxtail; [3]) | Giant foxtail plant response rating (giant foxtail; [4]) | Giant foxtail plant response rating (giant foxtail; [5]) | Giant foxtail plant response rating (giant foxtail; [6]) | Giant foxtail plant response rating (giant foxtail; [7]) | Giant foxtail plant response rating (giant foxtail; [8]) | Plant response rating, Morningglory (morningglory; [1]) | Morningglory plant response rating (morningglory; [2]) | Morningglory plant response rating (morningglory; [3]) | Morningglory plant response rating (morningglory; [5]) | Morningglory plant response rating (morningglory; [6]) | Morningglory plant response rating (morningglory; [7]) | Morningglory plant response rating (morningglory; [8]) | Plant response rating, Redroot pigweed (pigweed; [1]) | Redroot pigweed plant response rating (pigweed; [2]) | Redroot pigweed plant response rating (pigweed; [3]) | Redroot pigweed plant response rating (pigweed; [5]) | Redroot pigweed plant response rating (pigweed; [6]) | Redroot pigweed plant response rating (pigweed; [7]) | Redroot pigweed plant response rating (pigweed; [8]) | Plant response rating, Rape (rape; [1]) | Rape plant response rating (rape; [2]) | Rape plant response rating (rape; [3]) | Rape plant response rating (rape; [5]) | Rape plant response rating (rape; [6]) | Rape plant response rating (rape; [7]) | Rape plant response rating (rape; [8]) | Plant response rating, Soybean (soybean; [1]) | Soybean plant response rating (soybean; [3]) | Soybean plant response rating (soybean; [5]) | Soybean plant response rating (soybean; [6]) | Soybean plant response rating (soybean; [7]) | Soybean plant response rating (soybean; [8]) | Plant response rating, Sugarbeets (sugar beet; [1]) | Sugarbeets plant response rating (sugar beet; [3]) | Sugarbeets plant response rating (sugar beet; [5]) | Sugarbeets plant response rating (sugar beet; [6]) | Sugarbeets plant response rating (sugar beet; [7]) | Sugarbeets plant response rating (sugar beet; [8]) | Plant response rating, Velvetleaf (velvetleaf; [1]) | Velvetleaf plant response rating (velvetleaf; [3]) | Velvetleaf plant response rating (velvetleaf; [5]) | Velvetleaf plant response rating (velvetleaf; [6]) | Velvetleaf plant response rating (velvetleaf; [7]) | Velvetleaf plant response rating (velvetleaf; [8]) | Plant response rating, Wheat (wheat; [1]) | Wheat plant response rating (wheat; [3]) | Wheat plant response rating (wheat; [5]) | Wheat plant response rating (wheat; [6]) | Wheat plant response rating (wheat; [7]) | Wheat plant response rating (wheat; [8]) | Plant response rating, Wild oats (wild oat; [1]) | Wild oats plant response rating (wild oat; [3]) | Wild oats plant response rating (wild oat; [5]) | Wild oats plant response rating (wild oat; [6]) | Wild oats plant response rating (wild oat; [7]) | Wild oats plant response rating (wild oat; [8]) | Plant response rating, Nutsedge (purple nutsedge; [1]) | Nutsedge plant response rating (purple nutsedge; [2]) | Nutsedge plant response rating (purple nutsedge; [3]) | Nutsedge plant response rating (purple nutsedge; [5]) | Nutsedge plant response rating (purple nutsedge; [6]) | Nutsedge plant response rating (purple nutsedge; [7]) | Nutsedge plant response rating (purple nutsedge; [8])
